The source of these data is US9725460B2, “Oridonin analogs, compositions, and methods related thereto” (THE BOARD OF REGENTS OF THE UNIVERSITY OF TEXAS SYSTEM, priority 2013, dated 2017).

The subject of experiment [1] is MDA-MB-468. Briefly: MTT cancer cell proliferation assay, MDA-MB-468. The format is cell-based, human. The settings on record: Table 3, pyran-fused diterpenoids, MTT 48 h, mean ± SE of three experiments. As to the method:
(§1) In Vitro Determination of Effects of Synthesized Diterpenoids on Cancer Cell Proliferation. Breast cancer cell lines MCF-7, MDA-MB-231, […] and MCF/ADR were seeded in 96-well plates at a density of 1×10^4 cells/well and treated with DMSO and 0.01, 0.1, 1, 5, 10, and 100 μM of individual compound for 48 h, and then 20 μL of 3-(4,5-dimethylthiazol-2-yl)-2,5-diphenyltetrazolium bromide (MTT) (5 mg/mL in PBS) was added to each well and further incubated for another 4 h. Then MTT solution was removed, and 150 μL of DMSO was added to each well. Absorbance of all wells was determined by measuring OD at 550 nm after a 10 min incubation on a 96-well GlowMaxate absorbance reader (Promega, Madison, Wis.). Each individual compound was tested in quadruplicate wells for each concentration.
(§2) The growth inhibitory effects of the newly generated pyran-fused diterpenoids were evaluated in four breast cancer cell lines MCF-7 (ER-positive), MDAMB-231 (ER-negative and triple-negative), MDA-MB-468 (ER-negative and triple-negative) as well as MCF-7/ADR (adriamycin-resistant) using MTT assays as described in the Experimental Section. The capability of these new molecules to inhibit the growth of cancer cells was summarized in Table 3 and compared with that of adriamycin and 1 spontaneously.

Experiment [2] concerns MDA-MB-231. The experiment is described as follows: MTT cancer cell proliferation assay, MDA-MB-231. It counts as cell-based, human. As to the method: as §1
(§3) The growth inhibitory effects of the newly generated pyran-fused diterpenoids were evaluated in four breast cancer cell lines MCF-7 (ER-positive), MDAMB-231 (ER-negative and triple-negative), MDA-MB-468 (ER-negative and triple-negative) as well as MCF-7/ADR (adriamycin-resistant) using MTT assays as described in the Experimental Section.

Experiment [3] relates to MCF-7. The experiment is described as follows: MTT cancer cell proliferation assay, MCF-7. The format is cell-based, human. As to the method: as §1, §3
The subject of experiment [4] is MCF-7/ADR. The experiment is described as follows: MTT growth inhibition, drug-resistant MCF-7/ADR. The format is cell-based, human. The settings on record: Table 3, adriamycin-resistant, MTT 48 h, mean ± SE of three experiments. As to the method:
as §1, §2

Experiment [5] has as its system Panc-1. The experiment is described as follows: Cancer cell proliferation assay, Panc-1. It counts as cell-based. The settings on record: Homo sapiens. As to the method:
(§4) In Vitro Determination of Effects of Synthesized Diterpenoids on Cancer Cell Proliferation. […] Then MTT solution was removed, and 150 μL of DMSO was added to each well. Absorbance of all wells was determined by measuring OD at 550 nm after a 10 min incubation on a 96-well GlowMaxate absorbance reader (Promega, Madison, Wis.). Each individual compound was tested in quadruplicate wells for each concentration.

Experiment [6] relates to DU145. Briefly: Cancer cell proliferation assay, DU145. Conditions: Homo sapiens, DU-145. The format is cell-based.
Experiment [7] relates to AsPC1. Briefly: Cancer cell proliferation assay, AsPC1. The format is cell-based. Conditions: Homo sapiens. As to the method:
as §4

Where [8] appears, read: PANC-1, Table 1a, pancreatic cancer, read-out: IC50 (μM) Panc-1.
[9] abbreviates: PANC-1, Table 2b, mean of at least three experiments, read-out: Effect on proliferation Panc-1 (IC50).
Where [10] appears, read: Table 1a, prostate cancer, read-out: IC50 (μM) DU145.
[11] abbreviates: Table 2b, mean of at least three experiments, read-out: Effect on proliferation DU145 (IC50).
Setting [12] is: Homo sapiens, MDA-MB-231, Table 1a, breast cancer, read-out: IC50 (μM) MDA-MB-231.
Where [13] appears, read: Homo sapiens, MDA-MB-231, Table 2b, mean of at least three experiments, read-out: Effect on proliferation MDA-MB-231 (ER negative) (IC50).
Setting [14] is: Homo sapiens, MCF7, Table 1a, breast cancer, read-out: IC50 (μM) MCF-7.
The mark [15] stands for this setting: Homo sapiens, MCF7, Table 2b, mean of at least three experiments, read-out: Effect on proliferation MCF-7 (ER positive) (IC50).
The mark [16] stands for this setting: ASPC1, Table 1a, pancreatic cancer, read-out: IC50 (μM) AsPC1.
Setting [17] is: ASPC1, Table 2b, mean of at least three experiments, read-out: Effect on proliferation AsPC1 (IC50).
Setting [18] is: Table 3, pyran-fused diterpenoids, MTT 48 h, mean ± SE of three experiments, read-out: IC50 (μM) MDA-MB-231.
Where [19] appears, read: Table 3, pyran-fused diterpenoids, MTT 48 h, mean ± SE of three experiments, read-out: IC50 (μM) MCF-7.

Where two headings read alike, the source gives them in different places.

`COc1cccc2c1C(=O)c1c(O)c3c(c(O)c1C2=O)C[C@@](O)(C(=O)CO)C[C@@H]3O[C@H]1C[C@H](N)[C@H](O)[C@H](C)O1` [Adriamycin, reference compound]: the IC50 is 0.65 ± 0.26 µM in experiment [1] (Homo sapiens, MDA-MB-468, 48 h); 2.33 ± 0.22 µM in experiment [2] (Homo sapiens, MDA-MB-231, 48 h, Table 3, pyran-fused diterpenoids, MTT 48 h, mean ± SE of three experiments, read-out: IC50 (μM) MDA-MB-231); 0.67 ± 0.45 µM in experiment [3] (Homo sapiens, MCF7, 48 h, Table 3, pyran-fused diterpenoids, MTT 48 h, mean ± SE of three experiments, read-out: IC50 (μM) MCF-7); above 10 µM in experiment [4] (Homo sapiens, NCI/ADR-RES, 48 h).
Take `C=C1C(=O)[C@]23[C@H](O)[C@H]1CC[C@H]2[C@@]12CO[C@]3(O)[C@@H](O)[C@@H]1C(C)(C)Cc1sc(N)nc12` [CYD-5-41, (5aR,6S,7S,7aR,10S,12aS,12bR,15R)-2-amino-6,7,15-trihydroxy-5,5-dimethyl-9-methylene-5,5a,6,7,10,11,12,12a-octahydro-4H-7,12b-(epoxymethano)-7a,10-methanocyclohepta[7,8]naphtho[1,2-d]thiazol-8(9H)-one]: the IC50 was 6.13 µM in experiment [5] (setting [8]); 6.1 µM in experiment [5] (setting [9]); 3.46 µM in experiment [6] (setting [10]); 3.5 µM in experiment [6] (setting [11]); 3.24 µM in experiment [2] (setting [12]); 3.2 µM in experiment [2] (setting [13]). Besides, the IC50 came to 1.02 µM in experiment [3] (setting [14]), 1 µM in experiment [3] (setting [15]), 5.58 µM in experiment [7] (setting [16]) and 5.6 µM in experiment [7] (setting [17]).
As to `C=C1C(=O)[C@@]23C(CC[C@H]1[C@H]2O)[C@@]12CO[C@]3(O)[C@@H](O)C1C(C)(C)Cc1sc(NC(C)=O)nc12` (stereo partly drawn) [CYD-6-21, N-((6S,7S,7aR,10R,12bR,15R)-6,7,15-trihydroxy-5,5-dimethyl-9-methylene-8-oxo-5,5a,6,7,8,9,10,11,12,12a-decahydro-4H-7,12b-(epoxymethano)-7a,10-methanocyclohepta[7,8]naphtho[1,2-d]thiazol-2-yl)acetamide], the IC50 in experiment [5] (setting [8]) was determined as 6.71 µM; in experiment [5] (setting [9]), 6.7 µM; in experiment [6] (setting [10]), 6.34 µM; in experiment [6] (setting [11]), 6.3 µM; in experiment [2] (setting [12]), 6.82 µM; in experiment [2] (setting [13]) it was 6.8 µM. Also, the IC50 in experiment [3] (setting [14]) is 1.99 µM; in experiment [3] (setting [15]), 2 µM; in experiment [7] (setting [16]), 4.83 µM; in experiment [7] (setting [17]), 4.8 µM.
Regarding `C=C1C(=O)[C@@]23C(CC[C@H]1[C@H]2O)[C@@]12CO[C@]3(O)[C@@H](O)C1C(C)(C)Cc1sc(N3CCCCCC3)nc12` (stereo partly drawn) [CYD-6-26-2, (6S,7S,7aR,10R,12bR,15R)-2-(azepan-1-yl)-6,7,15-trihydroxy-5,5-dimethyl-9-methylene-5,5a,6,7,10,11,12,12a-octahydro-4H-7,12b-(epoxymethano)-7a,10-methanocyclohepta[7,8]naphtho[1,2-d]thiazol-8(9H)-one], the IC50 was determined as 6.29 µM in experiment [5] (setting [8]); 6.3 µM in experiment [5] (setting [9]); 4.74 µM in experiment [6] (setting [10]); 4.7 µM in experiment [6] (setting [11]); 6.82 µM in experiment [2] (setting [12]); 6.8 µM in experiment [2] (setting [13]). The IC50 turned out to be 1.15 µM in experiment [3] (setting [14]), 1.2 µM in experiment [3] (setting [15]), 2.3 µM in experiment [7] (setting [16]) and 2.3 µM in experiment [7] (setting [17]).
Take `C=C1C(=O)[C@@]23C(=O)[C@@H](O)[C@@H]4C(C)(C)[C@@H]5OC[C@]4(C(=O)/C5=C\O)[C@@H]2CC[C@@H]1[C@H]3O` [CYD-7-5]: the IC50 in experiment [5] (PANC-1, read-out: IC50 (μM) Panc-1) was above 10 µM; in experiment [2] (Homo sapiens, MDA-MB-231, read-out: Antiproliferative effect MDA-MB-231 (IC50)), above 30 µM; in experiment [2] (Homo sapiens, MDA-MB-231, read-out: IC50 (μM) MDA-MB-231), above 10 µM; in experiment [3] (Homo sapiens, MCF7, read-out: Antiproliferative effect MCF-7 (IC50)) it was above 30 µM; in experiment [3] (Homo sapiens, MCF7, read-out: IC50 (μM) MCF-7), above 10 µM; in experiment [7] (ASPC1, read-out: IC50 (μM) AsPC1) it was above 10 µM.
Consider `C=C1C(=O)[C@@]23[C@@H]4OC(C)(C)O[C@@]25OC[C@]2(C6=C(CC[C@@H](OCC)O6)CC(C)(C)[C@H]2[C@@H]5O)[C@@H]3CC[C@@H]14` [CYD-8-45-1], for which the IC50 in experiment [1] was 5.4 ± 0.98 µM; in experiment [2] (setting [18]) it was 6.13 ± 2.43 µM; in experiment [3] (setting [19]), 3.52 ± 2.15 µM; in experiment [4], 4.65 ± 3.15 µM.
For `C=C1C(=O)[C@@]23[C@@H]4OC(C)(C)O[C@@]25OC[C@]2(C6=C(CC[C@@H](OCC)O6)CC(C)(C)[C@H]2[C@@H]5O)[C@@H]3CC[C@@H]14` [CYD-8-45-2] the same measures were 0.52 ± 0.18 µM, 0.54 ± 0.14 µM, 0.44 ± 0.27 µM and 1.64 ± 0.72 µM.
